Values of other authors, collected in PMC8791944, “GLUT3 inhibitor discovery through in silico ligand screening and in vivo validation in eukaryotic expression systems” (Scientific Reports, 2022).

Tested on: GLUT3
Details: read-out: KM of 2-deoxy-glucose for GLUT3; GLUT3 expressed in Xenopus laevis oocytes ref 12; cited from earlier work

SMILES: O=CC[C@@H](O)[C@H](O)[C@H](O)CO [2-deoxy-glucose, 2-deoxy-D-glucose]
- Km: ~1.4 mM
